In brackets after ≈: the same amount, converted by molar mass. Activity calls are given as the source filed them. The rule behind the calls is not given here.
Experiments:
Osteoblast [1] = experiment: Increase in lactate production in primary human osteoblasts at 1 uM after 1 hr by ELISA; type: functional, cell-based
MG-63 [2] = experiment: Increase in lactate production in MG63 cells at 1 uM after 1 hr by ELISA; type: functional, cell-based; conditions: Homo sapiens
Osteoblast [3] = experiment: Blocking of clindamycin-induced lactate production in primary human osteoblasts at 20 mM by ELISA; type: functional, cell-based
Osteoblast [4] = experiment: Blocking of clindamycin-induced LDH release in primary human osteoblasts at 20mM by ELISA; type: functional, cell-based
Osteoblast [5] = experiment: Increase in lactate production in primary human osteoblasts at 10 hrs by ELISA; type: functional
Osteoblast [6] = experiment: Antiproliferative effect against primary human osteoblasts assessed as BrdU incorporation into DNA after 48 hrs after 48 hrs below 1 uM; type: functional, cell-based
Osteoblast [7] = experiment: Inhibition of metabolic activity in primary human osteoblasts by MTT assay below 1 uM; type: functional, cell-based
Osteoblast [8] = experiment: Increase in lactate production in primary human osteoblasts above 0.25 uM by ELISA; type: functional
MG-63 [9] = experiment: Increase in lactate production in MG63 cells at 50 nM by ELISA relative to control; type: functional, Homo sapiens
MG-63 [10] = experiment: Inhibition of metabolic activity in MG63 cells by MTT assay relative to control; type: functional, Homo sapiens
[11] = Cytotoxicity against primary human osteoblasts at 400 ug/ml assessed as LDH release after 24 hrs; conditions: osteoblast, at 400 µg/mL
[12] = Cytotoxicity against primary human osteoblasts at 100 ug/ml assessed as LDH release after 24 hrs; type: cell-based; conditions: osteoblast
[13] = Cytotoxicity against primary human osteoblasts at 200 ug/ml assessed as LDH release after 24 hrs; type: cell-based; conditions: osteoblast
[14] = Antiproliferative effect against primary human osteoblasts assessed as BrdU incorporation into DNA after 48 hrs; type: functional, cell-based; conditions: Osteoblast
Osteoblast [15] = experiment: Inhibition of metabolic activity in primary human osteoblasts assessed as MTT reduction after 48 hrs; type: functional, cell-based
MG-63 [16] = experiment: Antiproliferative effect against MG63 cells assessed as BrdU incorporation into DNA after 48 hrs after 48 hrs; type: functional, cell-based; conditions: Homo sapiens, MG-63, 48 h
MG-63 [17] = experiment: Inhibition of metabolic activity in MG63 cells assessed as MTT reduction after 48 hrs; type: functional, cell-based; conditions: Homo sapiens, MG-63, 48 h
HeLa [18] = experiment: Antiproliferative effect against HeLa cells after 48 hrs; type: functional, cell-based; conditions: Homo sapiens
HeLa [19] = experiment: Inhibition of metabolic activity in HeLa cells assessed as MTT reduction after 48 hrs; type: functional, cell-based; conditions: Homo sapiens
MG-63 [20] = experiment: Increase in lactate production in MG63 cells at 400 ug/ml by ELISA relative to control; type: functional, Homo sapiens
Osteoblast [21] = experiment: Increase in lactate production in primary human osteoblasts at 400 ug/ml by ELISA relative to control; type: functional
Osteoblast [22] = experiment: Increase in lactate production in primary human osteoblasts at 1.5 ug/ml by ELISA; type: functional
Osteoblast [23] = experiment: Antiproliferative effect against primary human osteoblasts in presence of 10% FCS; type: functional, cell-based
Osteoblast [24] = experiment: Antiproliferative effect against primary human osteoblasts assessed as BrdU incorporation into DNA at 10 ug/ml after 48 hrs; type: functional, cell-based
Osteoblast [25] = experiment: Increase in lactate production in primary human osteoblasts at 25 to 50 ug/ml by ELISA; type: functional
Osteoblast [26] = experiment: Inhibition of metabolic activity in primary human osteoblasts in presence of 10% FCS; type: functional
MG-63 [27] = experiment: Decrease in lactate production in MG63 cells by ELISA; type: functional, cell-based; conditions: Homo sapiens
HeLa [28] = experiment: Decrease in lactate production in HeLa cells by ELISA; type: functional, cell-based; conditions: Homo sapiens
Osteoblast [29] = experiment: Increase in lactate production in primary human osteoblasts at 6 ug/ml by ELISA; type: functional
Osteoblast [30] = experiment: Increase in lactate production in primary human osteoblasts at 190 ug/ml by ELISA; type: functional
MG-63 [31] = experiment: Decrease in lactate production in MG63 cells at 400 ug/ml by ELISA; type: functional, Homo sapiens; set-up: scale not given: the % may be the effect or the level left
HeLa [32] = experiment: Decrease in lactate production in HeLa cells at 400 ug/ml by ELISA; type: functional, Homo sapiens; set-up: scale not given: the % may be the effect or the level left

Compound	Activity [11]	IC20 [14]	IC50 [14]	IC20 (Osteoblast [15])	IC50 (Osteoblast [15])	IC20 (MG-63 [16])	IC50 (MG-63 [16])	IC20 (MG-63 [17])	IC50 (MG-63 [17])	IC20 (HeLa [18])	IC50 (HeLa [18])	IC20 (HeLa [19])	IC50 (HeLa [19])	also measured
C=C(C)[C@H]1Cc2c(ccc3c2O[C@@H]2COc4cc(OC)c(OC)cc4[C@@H]2C3=O)O1	–	–	–	–	–	–	–	–	–	–	–	–	–	Activity (Osteoblast [1]): Active; Activity (MG-63 [2]): Active
Nc1ncnc2c1ncn2[C@@H]1O[C@H](CO)[C@@H](O)[C@H]1O	–	–	–	–	–	–	–	–	–	–	–	–	–	Activity (Osteoblast [3]): Active; Activity (Osteoblast [4]): Active
CCCCCC[C@H]1C(=O)O[C@H](C)[C@H](NC(=O)c2cccc(NC=O)c2O)C(=O)O[C@@H](C)[C@@H]1OC(=O)CC(C)C [ANTIMYCIN A]	–	–	–	–	–	–	–	–	–	–	–	–	–	Activity (Osteoblast [5]): 14 µmol; Activity (Osteoblast [6]): inactive; Activity (Osteoblast [7]): inactive; Activity (Osteoblast [8]): 150%; Activity (MG-63 [9]): 50%; Inhibition (MG-63 [10]): 70%
CC[C@H]1OC(=O)[C@H](C)[C@@H](O[C@H]2C[C@@](C)(OC)[C@@H](O)[C@H](C)O2)[C@H](C)[C@@H](O[C@@H]2O[C@H](C)C[C@H](N(C)C)[C@H]2O)[C@](C)(O)C[C@@H](C)CN(C)[C@H](C)[C@@H](O)[C@]1(C)O [AZITHROMYCIN]	40%	20 µg/mL (≈ 26.7 µM)	25 µg/mL (≈ 33.4 µM)	80 µg/mL (≈ 107 µM)	160 µg/mL (≈ 214 µM)	30 µg/mL (≈ 40.1 µM)	190 µg/mL (≈ 254 µM)	70 µg/mL (≈ 93.5 µM)	180 µg/mL (≈ 240 µM)	110 µg/mL (≈ 147 µM)	240 µg/mL (≈ 320 µM)	50 µg/mL (≈ 66.8 µM)	160 µg/mL (≈ 214 µM)	Activity [12]: 20%; Activity [13]: 40%; Activity (MG-63 [20]): 30%
Cc1nnc(SCC2=C(C(=O)O)N3C(=O)[C@@H](NC(=O)Cn4cnnn4)[C@H]3SC2)s1 [CEFAZOLIN]	–	380 µg/mL (≈ 836 µM)	> 400 µg/mL	> 400 µg/mL	> 400 µg/mL	230 µg/mL (≈ 506 µM)	> 400 µg/mL	400 µg/mL (≈ 880 µM)	> 400 µg/mL	270 µg/mL (≈ 594 µM)	> 400 µg/mL	> 400 µg/mL	> 400 µg/mL	–
O=C(N[C@H](CO)[C@H](O)c1ccc([N+](=O)[O-])cc1)C(Cl)Cl [CHLORAMPHENICOL]	–	60 µg/mL (≈ 186 µM)	230 µg/mL (≈ 712 µM)	260 µg/mL (≈ 805 µM)	> 400 µg/mL	200 µg/mL (≈ 619 µM)	> 400 µg/mL	110 µg/mL (≈ 340 µM)	400 µg/mL (≈ 1240 µM)	340 µg/mL (≈ 1050 µM)	> 400 µg/mL	100 µg/mL (≈ 309 µM)	340 µg/mL (≈ 1050 µM)	Activity (Osteoblast [21]): 150%; Activity (Osteoblast [22]): 12%; Activity (Osteoblast [23]): Active
O=C(O)c1cn(C2CC2)c2cc(N3CCNCC3)c(F)cc2c1=O [CIPROFLOXACIN]	–	70 µg/mL (≈ 211 µM)	170 µg/mL (≈ 513 µM)	260 µg/mL (≈ 785 µM)	> 400 µg/mL	80 µg/mL (≈ 241 µM)	160 µg/mL (≈ 483 µM)	60 µg/mL (≈ 181 µM)	150 µg/mL (≈ 453 µM)	100 µg/mL (≈ 302 µM)	290 µg/mL (≈ 875 µM)	70 µg/mL (≈ 211 µM)	120 µg/mL (≈ 362 µM)	Activity (Osteoblast [24]): Active; Activity (Osteoblast [25]): 10%
CCC[C@@H]1C[C@@H](C(=O)N[C@@H]([C@H]2O[C@H](SC)[C@H](O)[C@@H](O)[C@H]2O)[C@H](C)Cl)N(C)C1 [CLINDAMYCIN]	10%	40 µg/mL (≈ 94.1 µM)	150 µg/mL (≈ 353 µM)	340 µg/mL (≈ 800 µM)	> 400 µg/mL	160 µg/mL (≈ 376 µM)	250 µg/mL (≈ 588 µM)	200 µg/mL (≈ 471 µM)	> 400 µg/mL	230 µg/mL (≈ 541 µM)	> 400 µg/mL	80 µg/mL (≈ 188 µM)	200 µg/mL (≈ 471 µM)	IC20 (Osteoblast [26]): 20 µg/mL; Activity (MG-63 [27]): Active; Activity (HeLa [28]): Active; Activity (MG-63 [20]): 60%; Activity (Osteoblast [23]): Active
CC[C@H]1OC(=O)[C@H](C)[C@@H](O[C@H]2C[C@@](C)(OC)[C@@H](O)[C@H](C)O2)[C@H](C)[C@@H](O[C@@H]2O[C@H](C)C[C@H](N(C)C)[C@H]2O)[C@](C)(O)C[C@@H](C)C(=O)[C@H](C)[C@@H](O)[C@]1(C)O [ERYTHROMYCIN]	40%	30 µg/mL (≈ 40.9 µM)	180 µg/mL (≈ 245 µM)	210 µg/mL (≈ 286 µM)	> 400 µg/mL	130 µg/mL (≈ 177 µM)	300 µg/mL (≈ 409 µM)	180 µg/mL (≈ 245 µM)	310 µg/mL (≈ 422 µM)	210 µg/mL (≈ 286 µM)	> 400 µg/mL	110 µg/mL (≈ 150 µM)	170 µg/mL (≈ 232 µM)	IC20 (Osteoblast [26]): 11 µg/mL; Activity (MG-63 [20]): 60%; Activity (Osteoblast [23]): Active
CC(=O)NC[C@H]1CN(c2ccc(N3CCOCC3)c(F)c2)C(=O)O1 [LINEZOLID]	–	240 µg/mL (≈ 711 µM)	> 400 µg/mL	> 400 µg/mL	> 400 µg/mL	–	–	250 µg/mL (≈ 741 µM)	> 400 µg/mL	–	–	300 µg/mL (≈ 889 µM)	> 400 µg/mL	Activity (Osteoblast [21]): 120%; Activity (Osteoblast [29]): 13%
COc1c(N2C[C@@H]3CCCN[C@@H]3C2)c(F)cc2c(=O)c(C(=O)O)cn(C3CC3)c12 [MOXIFLOXACIN]	10%	80 µg/mL (≈ 199 µM)	160 µg/mL (≈ 399 µM)	190 µg/mL (≈ 473 µM)	> 400 µg/mL	110 µg/mL (≈ 274 µM)	230 µg/mL (≈ 573 µM)	30 µg/mL (≈ 74.7 µM)	170 µg/mL (≈ 423 µM)	90 µg/mL (≈ 224 µM)	320 µg/mL (≈ 797 µM)	40 µg/mL (≈ 99.6 µM)	110 µg/mL (≈ 274 µM)	Activity (Osteoblast [24]): Active; Activity (Osteoblast [25]): 10%
CO[C@H]1/C=C/O[C@@]2(C)Oc3c(C)c(O)c4c(O)c(c(/C=N/N5CCN(C)CC5)c(O)c4c3C2=O)NC(=O)/C(C)=C\C=C\[C@H](C)[C@H](O)[C@@H](C)[C@@H](O)[C@@H](C)[C@H](OC(C)=O)[C@@H]1C [RIFAMPIN]	–	30 µg/mL (≈ 36.5 µM)	130 µg/mL (≈ 158 µM)	–	–	120 µg/mL (≈ 146 µM)	240 µg/mL (≈ 292 µM)	–	–	180 µg/mL (≈ 219 µM)	270 µg/mL (≈ 328 µM)	–	–	Activity (Osteoblast [21]): 40%
CC[C@H]1OC(=O)[C@H](C)[C@@H](O[C@H]2C[C@@](C)(OC)[C@@H](O)[C@H](C)O2)[C@H](C)[C@@H](O[C@@H]2O[C@H](C)C[C@H](N(C)C)[C@H]2O)[C@](C)(O)C[C@@H](C)/C(=N\OCOCCOC)[C@H](C)[C@@H](O)[C@]1(C)O [ROXITHROMYCIN]	40%	20 µg/mL (≈ 23.9 µM)	70 µg/mL (≈ 83.6 µM)	110 µg/mL (≈ 131 µM)	210 µg/mL (≈ 251 µM)	50 µg/mL (≈ 59.7 µM)	180 µg/mL (≈ 215 µM)	50 µg/mL (≈ 59.7 µM)	110 µg/mL (≈ 131 µM)	100 µg/mL (≈ 119 µM)	160 µg/mL (≈ 191 µM)	30 µg/mL (≈ 35.8 µM)	90 µg/mL (≈ 108 µM)	Activity [12]: 20%; Activity [13]: 30%
CN(C)[C@@H]1C(O)=C(C(N)=O)C(=O)[C@@]2(O)C(O)=C3C(=O)c4c(O)cccc4[C@@](C)(O)[C@H]3C[C@@H]12 [TETRACYCLINE]	–	60 µg/mL (≈ 135 µM)	180 µg/mL (≈ 405 µM)	–	–	60 µg/mL (≈ 135 µM)	180 µg/mL (≈ 405 µM)	–	–	200 µg/mL (≈ 450 µM)	> 400 µg/mL	–	–	Activity (Osteoblast [30]): 30%; Activity (MG-63 [31]): 50%; Activity (HeLa [32]): 50%
GENTAMICIN	–	–	–	–	–	–	–	–	–	–	–	–	–	Activity (Osteoblast [23]): inactive
